Values joined by “and” are separate entries in the source; they are usually repeats but may differ in a detail not shown here. Equal entries are not always repeated. Where two headings read alike, the source gives them in different places.
What was measured:
[1] = Metabolism of sepin-1 in human liver microsomes; format: in vitro ADME; conditions: 30 μM sepin-1, NADPH 1.0 mM, 30 min
Experimental: Incubations were conducted in 1× phosphate-buffered saline (1× PBS, pH 7.4), containing 30 μM sepin-1, 1.0 mg HLM, MLM, RLM, or 2 pmol of each cDNA-expressed P450 enzyme (control, CYP1A2, 2A6, 2B6, 2C8, 2C9, 2C19, 2D6, 2E1, and CYP3A4) in a final volume of 190 μl. After 5 min of pre-incubation at 37°C, the reaction was initiated by adding 10 μl of 20 mM NADPH (final concentration 1.0 mM) and continued for 30 min, with shaking at 37°C. Incubations lacking NADPH served as controls. Reactions were terminated with 200 μl of ice-cold methanol, followed by vortexing for 30 s and centrifuging at 15,000 × g for 15 min. Each supernatant was transferred to an auto sampler vial, and 5.0 μl was injected on to UHPLC coupled with a QTOFMS system for metabolite analysis. Incubations were conducted in quadruplicate for HLM, in triplicate for MLM and RLM, and in duplicate for cDNA-expressed P450 enzymes.
The separation of sepin-1 and its metabolites was achieved using a 1260 Infinity Binary LC System (Agilent Technologies, Santa Clara, CA, United States) equipped with 100 mm × 2.1 mm (Agilent XDB C18) column. The column temperature was maintained at 40°C. The flow rate was 0.3 ml/min, with a gradient ranging from 2% to 98% aqueous acetonitrile containing 0.1% formic acid in a 15-min run. QTOFMS was operated in a positive mode with electrospray ionization. Ultra-high pure nitrogen was applied as the drying gas (12 l/min) and the collision gas. The drying gas temperature was set at 325°C, and the nebulizer pressure was kept at 35 psi. The capillary voltages were set at 3.5 kV. […]
Mass chromatograms and mass spectra were acquired by MassHunter Workstation Data Acquisition Software (Agilent, Santa Clara, CA, United States) in centroid and profile formats from m/z 100 to 1000. […] For the QQQMS data, QQQ Quantitative Analysis Software (Agilent, Santa Clara, CA, United States) was used for metabolite analysis. […] Statistical differences between two groups were determined by Student’s t-test.

CYP2C19 = target: T1, CYP2C19 (Homo sapiens, UniProt P33261); experiment: Inhibition of sepin-1 on CYP2C19; format: in vitro ADME
T1 construct: purchased XenoTech
T1 sequence (P33261 whole entry): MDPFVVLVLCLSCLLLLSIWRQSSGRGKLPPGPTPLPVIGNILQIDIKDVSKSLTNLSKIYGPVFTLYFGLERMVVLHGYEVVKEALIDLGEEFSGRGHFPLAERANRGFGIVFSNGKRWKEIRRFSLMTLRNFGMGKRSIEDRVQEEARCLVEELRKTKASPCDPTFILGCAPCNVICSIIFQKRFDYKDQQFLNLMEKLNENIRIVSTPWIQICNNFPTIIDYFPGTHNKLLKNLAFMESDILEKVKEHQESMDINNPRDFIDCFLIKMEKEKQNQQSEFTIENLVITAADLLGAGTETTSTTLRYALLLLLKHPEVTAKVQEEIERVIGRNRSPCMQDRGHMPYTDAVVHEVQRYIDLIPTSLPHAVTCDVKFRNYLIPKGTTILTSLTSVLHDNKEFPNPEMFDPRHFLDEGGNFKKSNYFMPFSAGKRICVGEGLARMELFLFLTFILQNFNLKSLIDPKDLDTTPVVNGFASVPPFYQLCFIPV
Experimental: Incubations were performed in 1× PBS (pH 7.4), containing 0, 0.156, 0.312, 0.625, 1.25, 2.5, 5, 10, 20, or 40 μM sepin-1, 2 pmol of each cDNA-expressed P450 enzymes, and corresponding substrates: CYP1A2 (phenacetin, 40 μM, 20 min incubation), 2B6 (efavirenz, 20 μM, 30 min), 2C8 (paclitaxel, 10 μM, 30 min), 2C9 (diclofenac, 5 μM, 15 min), 2C19 [(S)-mephenytoin, 40 μM, 20 min], 2D6 (dextromethorphan, 5 μM, 15 min), and CYP3A4 (midazolam, 3 μM, 10 min) in a final volume of 190 μl. After 5 min of pre-incubation at 37°C, the reaction was initiated by adding 10 μl of 20 mM NADPH (final concentration 1.0 mM) and continued for a specific time as presented above with gentle shaking. Incubations without sepin-1 were used as controls. Reactions were terminated by the addition of 200 μl of ice-cold methanol, vortexing for 30 s, and centrifuging at 15,000 × g for 15 min. Each supernatant was transferred to an auto sampler vial and 5.0 μl was injected on to UHPLC coupled with a QQQMS system for the specific metabolite analysis. A MRM method was used. Incubations were conducted in duplicate. Positive controls were performed by using a known specific inhibitor for each of the isoform assays (Supplementary Table S1). […]

Metabolism of parent in HLM (in words) [1]: metabolized rapidly
IC50 (CYP2C19; FDA classification bands, read-out: Inhibition potency class on CYP2C19): 1 to 10 µM
IC50 (CYP2C19; substrate (S)-mephenytoin 40 μM, 20 min, metabolite 4-O-mephenytoin, co-incubation, read-out: IC50 on CYP2C19): < 10 µM and 8.9 µM
SMILES: CC1(C)[N+]([O-])=c2ccc([N+](=O)[O-])cc2=[N+]1[O-] [Sepin-1, 2,2-dimethyl-5-nitro-2H-benzimidazole-1,3-dioxide]
